This note sets out measurements from article PMC8507260, “A2E-induced inflammation and angiogenesis in RPE cells in vitro are modulated by PPAR-α, -β/δ, -γ, and RXR antagonists and by norbixin” (Aging (Albany NY), 2021).

One assay relates to VEGF. As to the kind of experiment: VEGF mRNA expression by quantitative RT-PCR in porcine RPE cells. Format: cell-based. As for the experimental part: (§1) Pig eyes were obtained from a local slaughterhouse and transported to the laboratory in ice-cold Ringer solution. After removal of the anterior segment of the eye, the vitreous and neural retina was separated from the RPE and removed. The eyecup was washed twice with phosphate buffer saline (PBS), filled with trypsin (0.25% in PBS) and incubated at 37°C for 1.5 h. RPE cells were harvested by gently pipetting, centrifuged to remove trypsin and re-suspended in Dulbecco’s Modified Eagle Medium (DMEM) supplemented with 20% (v/v) foetal-calf serum (DMEM20%FCS) and 0.1% gentamycin. Cells were seeded into 60 mm diameter Petri dishes, cultured in an atmosphere of 5% CO2/95% air at 37°C, and supplied with fresh medium after 24 hours and 4 days in vitro. For experiments aimed at measuring mRNA or protein expression in RPE, cells were trypsinized after one week in culture and transferred to 24-well or 6-well plates at a density of 1.5 × 10^5 cells/cm^2 in DMEM2%FCS. Norbixin or agonists were added to the medium 24 h after seeding, and antagonists were added to the medium 24 h later. A2E treatment was performed during 19 h before cellular sample preparation. All the drugs used in these experiments were prepared as stock solutions in DMSO.
Total RNA was extracted using the NucleoSpin® RNA kit according to manufacturer’s instructions. RT of 500 ng of RNA was performed using the SuperScript III Reverse Transcriptase following the manufacturer’s instructions. Five ng of cDNA were amplified using the SYBR GREEN real-time PCR method. PCR primers for target genes and housekeeping gene GAPDH were designed using Primer3Plus Bioinformatic software (Table 2). The RT-PCR using the StepOne Plus (Life Technologies, Carlsbad, CA, USA) consisted of incubation at 50°C for 5 min followed by 40 cycles of 95°C for 15 s and of 60°C for 1 min. The reaction was completed by a melt curve stage at 95°C for 15 s, 60°C for 1 min, 95°C for 15 s and a final step at 60°C for 15 s. The relative mRNA expression was calculated using the comparative threshold method (Ct-method) with GAPDH for normalization. […]

Another assay deals with RXR. As to the kind of experiment: Endogenous RXR transactivation, luciferase reporter in porcine RPE cells. Type of assay: cell-based. As for the experimental part:
as §1
(§2) After one week in culture, cells were trypsinized and transferred to a 96-well plate at a density of 6 × 10^4 cells/cm^2 in DMEM2%FCS. The next day, cells were transfected using the Cignal Reporter Assay Kits for PPAR, RXR, AP-1 and NF-κB, according to the manufacturer’s specifications. To measure the specific activation of PPAR isoforms, cells were also co-transfected with PPAR-α, PPAR-β/δ or PPAR-γ expression vectors. Transfection was performed with Lipofectamine and Plus Reagent in serum-free medium. 3 h after the transfection, the medium was replaced and treatments with the molecules to assay were performed. Luciferase activity was measured the next day using the Dual-Luciferase Reporter Assay System. The measurements were performed with a luminometer (Infinite M1000 from Tecan, Mannedorf, Switzerland). Firefly: Renilla activity ratios were calculated for each condition and ratios from transcription factor-responsive reporter transfections were divided by ratios from negative control transfections to obtain relative luciferase unit, as described by the manufacturer. At least 3 independent transfections were performed in triplicate for each condition.

Another assay relates to PPAR-α. Kind of assay: Transactivation of over-expressed PPAR-α, luciferase reporter in porcine RPE cells. Format: cell-based, pig. As to conditions: for transactivation of over-expressed PPAR-α by the compound alone: vs DMSO control, A2E 20 μM, NBX increasing concentrations. As for the experimental part: First, we evaluated the binding profile of A2E to all three isoforms of PPAR. […] Then the effects of A2E on the endogenous PPAR transactivation in porcine RPE cells were investigated by means of a luciferase assay. […] The level of transactivation of PPAR-α, -β/δ, or -γ isoforms by A2E was determined by co-transfection of porcine RPE cells with a plasmid expressing each of the full-length PPAR isoforms and a plasmid expressing luciferase under the control of the PPAR response element. […]. All usual chemicals, primers, and HX531 were from Sigma (St. Louis, MO, USA). Reagents for cell culture, transfection and quantitative RT-PCR were from Thermo Fisher Scientific (Waltham, MA, USA). RNA extraction NucleoSpin® RNA kit was from Macherey Nagel (Düren, Germany). ECL prime and PVDF membrane were from Amersham GE Healthcare (Buckinghamshire, UK). Primary antibodies against the following proteins were used: GAPDH (Santa Cruz Biotechnology, Inc, Dallas, TX, USA); pAKT, AKT, pERK and ERK (Cell Signaling, Danvers, MA, USA). Secondary antibodies were from Jackson ImmunoResearch (Cambridgeshire, UK). […] Cignal Pathway Reporter Assay Kits were from QIAGEN (Frederick, MD, USA). The Dual-Luciferase Reporter Assay System was purchased from Promega (Madison, WI, USA). pcDNA 3.1 (+)-PPARα and pcDNA 3.1 (+)-PPARβ/δ (pig sequence) were purchased from Genscript (Piscataway, NJ, USA). pCMV6-XL4-PPARγ (human sequence) was purchased from Origene (Rockville, MD, USA).
as §2

The target in another assay is T1, RXR-α (Homo sapiens, UniProt P19793).
T1 construct: Eurofins Cerep (contract laboratory that ran the assay)
T1 sequence (P19793 1-462): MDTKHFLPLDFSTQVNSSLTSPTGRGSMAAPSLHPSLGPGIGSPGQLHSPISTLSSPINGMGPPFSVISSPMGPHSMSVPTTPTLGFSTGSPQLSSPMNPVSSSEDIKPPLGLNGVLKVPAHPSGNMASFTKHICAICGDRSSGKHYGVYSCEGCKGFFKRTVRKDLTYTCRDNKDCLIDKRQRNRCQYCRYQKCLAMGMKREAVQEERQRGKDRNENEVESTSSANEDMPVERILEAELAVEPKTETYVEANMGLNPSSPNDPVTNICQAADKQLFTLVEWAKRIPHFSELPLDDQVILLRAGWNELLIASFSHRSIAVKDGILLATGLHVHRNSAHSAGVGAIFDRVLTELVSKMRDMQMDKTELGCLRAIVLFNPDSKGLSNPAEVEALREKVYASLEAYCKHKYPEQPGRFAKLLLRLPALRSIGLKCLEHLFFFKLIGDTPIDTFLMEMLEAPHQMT
Kind of assay: Competition binding to RXR-α against [3H]9-cis-retinoic acid (Eurofins Cerep). Particulars: for IC50 / Kd: competition with [3H]9-cis-retinoic acid. As for the experimental part: To confirm this hypothesis, we tested by competition experiments whether A2E and norbixin could bind to RXR-α. […] In similar transactivation experiments, we tested the activity of norbixin alone or added to A2E on RXR transactivation.
Binding studies of A2E and norbixin to RXR-α and PPAR-α and γ were performed in vitro by an external laboratory (Eurofins Cerep, Celle L’Evescault, France) through competition experiments between A2E or norbixin and [^3H]9-cis-retinoic acid as the natural ligand of RXR-α, [^3H]GW7647 an agonist of PPAR-α and [^3H]Rosiglitazone an agonist of PPAR-γ.

In the case of `CC(/C=C/C=C(C)/C=C/C(=O)O)=C\C=C\C=C(C)\C=C\C=C(C)\C=C\C(=O)O` (stereo in doubt) [norbixin, 9’-cis-norbixin], the “effect on VEGF mRNA expression induced by A2E” value with VEGF (NBX 20 μM with A2E 30 μM, MK886 1 μM, GSK3787 1 μM, T007907 10 μM, alone or as mixture, with A2E 20 μM) is “significantly inhibited”. The “inhibition of RXR transactivation induced by A2E” value with RXR (A2E 20 μM, NBX 20 μM, HX531 5 μM) worked out at 49%. Besides, the “inhibition of RXR transactivation induced by HX630” value in the assay on RXR (HX630 5 μM, NBX 20 μM) was “did not inhibit”. In the assay on RXR (HX630 5 μM, NBX 20 μM, vs DMSO control), the “transactivation of RXRs by the compound alone” value was “did not induce the transactivation”. In the assay with PPAR-α (A2E 20 μM + NBX 20 μM), the “effect on over-expressed PPAR-α transactivation induced by A2E” value is listed as “fully abolished”. Also, in the assay with PPAR-α (GW9578 at 10 nM, NBX 20 μM), the “inhibition of PPAR-α transactivation induced by GW9578” value is on record as “did not inhibit significantly”. In addition, the “transactivation of over-expressed PPAR-α by the compound alone” value in the assay on PPAR-α is “did not demonstrate any transactivation activity”. At RXR-α, the half-inhibitory concentration (IC50) (as a rule, the midpoint of a concentration-inhibition curve) was determined as 65 µM and the Kd (as a rule, the concentration at which binding is half-saturated) came to 46 µM.
Take `CC(C=CC1=C(C)CCCC1(C)C)=CC=CC(C)=Cc1cc(C=CC=C(C)C=CC2=C(C)CCCC2(C)C)cc[n+]1CCO` [A2E, N-retinylidene-N-retinylethanolamine]: the “enhancement of VEGF mRNA expression by the compound alone” value in the assay on VEGF (A2E 30 μM vs DMSO control) was “approximately 9 fold”. For the same molecule, the “minimal concentration inducing transactivation of endogenous RXRs” value in the assay on RXR (dose-response, porcine RPE cells) was found to be 20 µM. In addition, the “transactivation of over-expressed PPAR-α by the compound alone” value in the assay with PPAR-α is “induced the transactivation”. Further, at RXR-α, the half-maximal inhibitory concentration (IC50) worked out at 6.1 µM and binding was put at a Kd of 4.3 µM. For the same molecule, the “binding affinity of A2E for RXR-α relative to norbixin (higher)” value on RXR-α (ratio of KDs) was determined as 10 fold.
